Measurements published in patent publication US20070249634A1, “Triazolopyrimidine Compounds and Use Thereof for Controlling Harmful Fungi” (priority 2004, published 2007).

With `CC1CCN(c2c(-c3cc([N+](=O)[O-])ccc3Cl)c(Cl)nc3ncnn23)CC1` [compound 56, 5-chloro-6-(2-chloro-5-nitrophenyl)-7-(4-methylpiperidin-1-yl)-[1,2,4]-triazolo[1,5-a]pyrimidine] as the compound, how does the melting point read?
The melting point was 199 to 204 °C.
